Test results reported in patent US7700792B2, “Highly active lysophosphatidic acid and method of screening therewith” (Ono Pharmaceutical Co., Ltd., priority 2003, dated 2010).

Tests used:
Male CD (SD) IGS rats = experiment: Increasing urethral pressure measuring system under anesthesia of rat with urethane; type: in vivo; details: i.v., urethane-anesthetized rat
Description: Male CD (SD) IGS rats (Charles River Japan Inc., 8-9 week-old in use) were anesthetized by subcutaneous administration of urethane (1.2 g/kg). After incision of cervical median, jugular catheter for administration of drug and arterial catheter for measurement of blood pressure were inserted. After incising of hypogastrium median, urethra was tied off in the vicinity of pubic bone. Urethra catheter was inserted into urethra by incision of dome of urinary bladder and fixed by ligation at the bladder neck. Urethra catheter was connected to the pressure tranducer and urethral pressure was measured. Subsequently, urethral pressure was adjusted about 20 mmHg and left until stabilizing (for about 20 minutes).

isolated urethra of rat = experiment: Contraction-measuring system using an isolated urethra of rat; details: Magnus tube, urethra strips, control high concentration KCl
Experimental: After sacrificing female or male CD (SD) IGS rats (Charles River Japan Inc., 8-9 week-old in use) by blowing heads and exsanguinating from carotid artery and jugular vein, urethra under pubis was isolated carefully and soaked in Krebs-Henseleit solution (112 mM NaCl, 5.9 mM KCl, 2.0 mM CaCl2, 1.2 mM MgCl2, 1.2 mM NaH2PO4, 25.0 mM NaHCO3, 11.5 mM Glucose) immediately. Urethra part was cut from isolated sample, and was dissected flatly and subsequently was cut parallel to circular muscle. Thus, 2-3 strips of sample that are 3-4 mm long by 2-3 mm wide were made from one animal.
The made samples were suspended in the Magnus tube (volume: 10 mL) filled by Krebs-Henseleit solution (vented by 37±1° C., mixed gas [95% O2+5% CO2]). The samples were added about 0.5 g tension and stabilized for 60 min, and subsequently the contractile activity was recorded on recorder (lincarcoder WR3320: GRAPHTEC CORP.) via a pressure amplifier (AP-621G: Nihon Kohden Ltd) from Force displacement transducer (FD pick-up TB-611T; Nihon Kohden Ltd).
The contractile reaction of control was given by stimulation of high concentration KCl solution (solution replaced all NaCl with KCl).

Row | SMILES | increase of urethral pressure (Male CD (SD) IGS rats; 0.3 mg/kg) [mmHg] | increase of urethral pressure (Male CD (SD) IGS rats; 1.0 mg/kg) [mmHg] | contracting effect on the isolated urethra of rat (isolated urethra of rat)
1 | CCCCC/C=C\C/C=C\CCCCCCCC(=O)OC[C@@H](O)COP(=O)([O-])[O-].[Na+].[Na+] [1-linoleoyl(18:2)-LPA, D(+)-sn-1-o-linoleoyl-glyceryl-3-phosphate. sodium salt, reference compound] | 0.6 | 0.8 | 
2 | CCCCC[C@@H]1O[C@@H]1C[C@H]1O[C@H]1CCCCCCCC(=O)OC[C@H](O)COP(=O)(O)O [Example 1-1] | 5.4 | 8.5 | contracting effect
